# Data taken from patent US12590057B2, “Crystalline complexes” (Theracryf PLC, priority 2020, dated 2026).
# What was measured:
# Assay type in all cases: physicochemical
# [1] = XRPD physical form after storage; settings: double bagged in HDPE bottle
# Description: XRPD diffractograms were collected on a PANalytical Empyrean diffractometer using Cu Kα radiation (45 kV, 40 mA) in transmission geometry. A 0.5° sat, 4 mm mask and 0.04 rad Soller slits with a focusing mirror were used on the incident beam. A PIXcel^3D detector, placed on the diffracted beam, was fitted with a receiving slit and 0.04 rad Soller slits. The software used for data collection was X'Pert Data Collector using X'Pert Operator Interface. The data were analysed and presented using Diffrac Plus EVA or HighScore Plus.
# After removal from the vacuum oven (day 0), Example 3 was reanalysed by XRPD in reflection mode on days 7, 9 and 29.
# (§1) In a separate study, samples of Form 3 (Example 5.3; batch ref. 491-PAL-18) having an initial water content by KF of 2.3% w/w were tested for water content at various time points after storage double bagged in a HDPE bottle under various conditions as shown in Table 17.
# [2] = Preliminary stability study, related substances by HPLC
# Description: Analysis of samples of sulforaphane:alpha-cyclodextrin complexes as prepared herein were carried out by HPLC according to the following method: • Column—Phenomenex Gemini C18, 5 μm, 110 Å, 250×4.6 mm; • Mobile Phase A: Water (+0.1% TFA); • Mobile Phase B: Acetonitrile (+0.1% TFA); • Flow: 1.5 mL/min; • Injection Volume: 10 μL; • Column Temperature: 25° C.; • Run Time: 40 minutes; • Sample preparation—Accurately weighed and transferred about 320 mg±30 mg of the sample to a 25-mL volumetric flask, added about 15 mL of diluent (70% water, 30% acetonitrile, 0.1% TFA) and mixed until dissolved. Diluted to volume with diluent and mixed. Transferred 3-4 mL to a syringe and filtered using a 0.45 PTFE filter, discarding the first 1-2 ml, and filtered into an autosampler vial and sealed with PTFE lined cap (prepared in duplicate); • HPLC Gradient according to Table 12
# Sulforaphane and certain related impurity peaks are summarised in Table 13, Characterisation of the impurities was carried out by LC-MS and ^1H-NMR. Relative Retention Times (RRT) are based on the HPLC method described above.
# Samples of Form 1 (batch ref. LS19-0004-S-8002), Form 3 prepared by minimally-agitated drying (Example 5.3; batch ref. 491-PAL-18) and Form 3 prepared by continuously-agitated filter drying (Example 5B—trial 5; batch ref. 00173-005) were stored at 5° C. (Table 14) and at 25° C./60% RH (Table 15) for 8 weeks in 60 ml Duma® bottles fitted with 45 mm Duma® caps and samples were analysed by HPLC according to the above method.
# [3] = KF water content of stability samples
# Description: The water content of each sample was measured on a Metrohm 874 Oven Sample Processor at 150° C. with 851 Titrano Coulometer using Hydranal Coulomat AG oven reagent and nitrogen purge. Weighed solid samples were introduced into a sealed sample vial. Approximately 10 mg of sample was used per titration and duplicate determinations were made. […] Data collection and analysis were performed using Tiamo software.
# The water content of samples of Form 1 (batch ref. LS19-0004-3-8002), Form 3 prepared by minimally-agitated drying ([…]; batch ref. 491-PAL-18) and Form 3 prepared by continuously-agitated filter drying (Example 5B trial 5; batch ref. 00173-005) was analysed by KF at the start of the stability study (initial) and after 2, 4 and 8 weeks storage in 60 ml Duma® bottles fitted with 45 mm Duma® caps (without desiccant) at 25° C./60% RH—see Table 16;
# as §1
# [4] = 25° C./60% RH stability, Initial
smiles,measurement,setting,value
C[S+]([O-])CCCCN=C=S.OC[C@H]1O[C@@H]2O[C@H]3[C@H](O)[C@@H](O)[C@@H](O[C@H]4[C@H](O)[C@@H](O)[C@@H](O[C@H]5[C@H](O)[C@@H](O)[C@@H](O[C@H]6[C@H](O)[C@@H](O)[C@@H](O[C@H]7[C@H](O)[C@@H](O)[C@@H](O[C@H]1[C@H](O)[C@H]2O)O[C@@H]7CO)O[C@@H]6CO)O[C@@H]5CO)O[C@@H]4CO)O[C@@H]3CO [Form 3 (Example 5.3)],XRPD main peaks of stability sample,"[1]; 1 month, 40° C./75% RH",concordant with Form 3
same,XRPD main peaks of stability sample,"[1]; 3 month, 25° C./60% RH",concordant with Form 3
same,"Related substances, HPLC RRT 0.56 (Dimer)","[2]; 5° C. stability, 8 wk",<0.05 % Area
same,"Related substances, HPLC RRT 0.60 (α-CD adduct)","[2]; 5° C. stability, 8 wk",1.19 % Area
same,"Related substances, HPLC RRT 1.14 (Mixed dimer)","[2]; 5° C. stability, 8 wk",0.05 % Area
same,"Related substances, HPLC RRT 1.21 (Erysolin)","[2]; 5° C. stability, 8 wk",0.28 % Area
same,"Related substances, HPLC RRT 1.58 (Thioether dimer)","[2]; 5° C. stability, 8 wk",0.07 % Area
same,"Related substances, Total Impurities","[2]; 5° C. stability, 8 wk",1.98 % Area
same,"Related substances, HPLC RRT 0.56 (Dimer)","[2]; 5° C. stability, Initial",<0.05 % Area
same,"Related substances, HPLC RRT 0.60 (α-CD adduct)","[2]; 5° C. stability, Initial",0.95 % Area
same,"Related substances, HPLC RRT 1.14 (Mixed dimer)","[2]; 5° C. stability, Initial",0.05 % Area
same,"Related substances, HPLC RRT 1.21 (Erysolin)","[2]; 5° C. stability, Initial",0.29 % Area
same,"Related substances, HPLC RRT 1.58 (Thioether dimer)","[2]; 5° C. stability, Initial",0.08 % Area
same,"Related substances, Total Impurities","[2]; 5° C. stability, Initial",1.71 % Area
same,"Related substances, HPLC RRT 0.56 (Dimer)","[2]; 25° C./60% RH stability, 8 wk",0.26 % Area
same,"Related substances, HPLC RRT 0.60 (α-CD adduct)","[2]; 25° C./60% RH stability, 8 wk",3.21 % Area
same,"Related substances, HPLC RRT 1.14 (Mixed dimer)","[2]; 25° C./60% RH stability, 8 wk",0.05 % Area
same,"Related substances, HPLC RRT 1.21 (Erysolin)","[2]; 25° C./60% RH stability, 8 wk",0.27 % Area
same,"Related substances, HPLC RRT 1.58 (Thioether dimer)","[2]; 25° C./60% RH stability, 8 wk",0.07 % Area
same,"Related substances, Total Impurities","[2]; 25° C./60% RH stability, 8 wk",4.57 % Area
same,"Related substances, HPLC RRT 0.56 (Dimer)",[2]; [4],<0.05 % Area
same,"Related substances, HPLC RRT 0.60 (α-CD adduct)",[2]; [4],0.95 % Area
same,"Related substances, HPLC RRT 1.14 (Mixed dimer)",[2]; [4],0.05 % Area
same,"Related substances, HPLC RRT 1.21 (Erysolin)",[2]; [4],0.29 % Area
same,"Related substances, HPLC RRT 1.58 (Thioether dimer)",[2]; [4],0.08 % Area
same,"Related substances, Total Impurities",[2]; [4],1.71 % Area
same,KF water content,"[3]; 2 weeks, Duma bottles without desiccant, 25° C./60% RH",2.5 % w/w
same,KF water content,"[3]; 4 weeks, Duma bottles without desiccant, 25° C./60% RH",2.1 % w/w
same,KF water content,"[3]; 5° C., 1 month, double bagged in HDPE bottle",4.2 % w/w
same,KF water content,"[3]; 5° C., 3 months, double bagged in HDPE bottle",4.6 % w/w
same,KF water content,"[3]; 5° C., 6 months, double bagged in HDPE bottle",4.7 % w/w
same,KF water content,"[3]; 5° C., Initial, double bagged in HDPE bottle",2.3 % w/w
same,KF water content,"[3]; 8 weeks, Duma bottles without desiccant, 25° C./60% RH",3.2 % w/w
same,KF water content,"[3]; 25° C./60% RH, 1 month, double bagged in HDPE bottle",6.1 % w/w
same,KF water content,"[3]; 25° C./60% RH, 3 months, double bagged in HDPE bottle",5.7 % w/w
same,KF water content,"[3]; 25° C./60% RH, 6 months, double bagged in HDPE bottle",6.1 % w/w
same,KF water content,"[3]; 25° C./60% RH, Initial, double bagged in HDPE bottle",2.3 % w/w
same,KF water content,"[3]; 40° C./75% RH, 1 month, double bagged in HDPE bottle",6.2 % w/w
same,KF water content,"[3]; 40° C./75% RH, 3 months, double bagged in HDPE bottle",6.2 % w/w
same,KF water content,"[3]; 40° C./75% RH, Initial, double bagged in HDPE bottle",2.3 % w/w
same,KF water content,"[3]; Initial, Duma bottles without desiccant, 25° C./60% RH study",2.4 % w/w
